The text below walks through data of patent US8455547B2, “Substituted cyclopentanes having prostaglandin activity” (Allergan, Inc., priority 2008, dated 2013).

The target of assay [1] is T1, EP4 (Homo sapiens, UniProt P35408). Put plainly: EP4 binding assay. An excerpt: (§1) U.S. patent application Ser. No. 11/553,143, filed on Oct. 26, 2006, incorporated by reference herein, describes the methods used to obtain the in vitro data in Tables 1 and 2 below.
The target in a further assay is T2, EP1 (Homo sapiens, UniProt P34995).
T2 sequence (P34995 1-402): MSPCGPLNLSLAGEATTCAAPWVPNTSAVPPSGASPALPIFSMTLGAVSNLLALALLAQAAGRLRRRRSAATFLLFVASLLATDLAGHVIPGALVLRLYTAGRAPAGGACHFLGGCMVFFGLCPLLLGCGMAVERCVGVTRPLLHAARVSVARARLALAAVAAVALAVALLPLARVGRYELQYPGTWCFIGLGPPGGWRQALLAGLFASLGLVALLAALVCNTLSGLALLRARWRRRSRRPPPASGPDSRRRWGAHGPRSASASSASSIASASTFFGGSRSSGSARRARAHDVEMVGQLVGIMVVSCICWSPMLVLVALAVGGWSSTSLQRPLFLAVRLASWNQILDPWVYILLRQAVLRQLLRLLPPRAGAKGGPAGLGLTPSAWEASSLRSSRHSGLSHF
Briefly: EP1 functional assay. Format: cell-based.
From the text: as §1

The target in assay [2] is T1, EP4. Briefly: EP4 Ca2+ signal assay. It is filed as cell-based. To be noted: for EP4 Ca2+ signal % PGE2: relative to PGE2.
From the text: as §1

The next assay addresses T3, EP3 (Homo sapiens, UniProt P43115).
T3 sequence (P43115 1-390): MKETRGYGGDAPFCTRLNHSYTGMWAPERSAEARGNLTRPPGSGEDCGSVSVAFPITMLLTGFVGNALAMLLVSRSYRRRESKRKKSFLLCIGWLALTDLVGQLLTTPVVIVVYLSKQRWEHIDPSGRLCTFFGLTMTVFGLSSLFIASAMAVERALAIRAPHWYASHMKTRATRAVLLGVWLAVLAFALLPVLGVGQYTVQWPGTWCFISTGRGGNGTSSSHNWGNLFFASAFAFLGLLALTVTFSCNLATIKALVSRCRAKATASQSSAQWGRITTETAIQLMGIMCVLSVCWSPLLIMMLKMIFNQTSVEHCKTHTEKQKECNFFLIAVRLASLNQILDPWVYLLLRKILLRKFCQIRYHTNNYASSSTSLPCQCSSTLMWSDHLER
Briefly: EP3 functional assay. It is filed as cell-based.
From the text: as §1

In assay [3] the target is T4, EP2 (Homo sapiens, UniProt P43116). Briefly: EP2 cAMP assay. Format: cell-based.
From the text: as §1

Assay [4] has as its target T4, EP2. Put plainly: EP2 binding assay.
From the text: as §1

In assay [5] the target is T4, EP2. Put plainly: EP2 Ca2+ signal assay. Format: cell-based. To be noted: for EP2 Ca2+ signal % PGE2: relative to PGE2.
From the text: as §1

In the next assay the target is T5, TP (Homo sapiens, UniProt P21731).
T5 sequence (P21731 1-343): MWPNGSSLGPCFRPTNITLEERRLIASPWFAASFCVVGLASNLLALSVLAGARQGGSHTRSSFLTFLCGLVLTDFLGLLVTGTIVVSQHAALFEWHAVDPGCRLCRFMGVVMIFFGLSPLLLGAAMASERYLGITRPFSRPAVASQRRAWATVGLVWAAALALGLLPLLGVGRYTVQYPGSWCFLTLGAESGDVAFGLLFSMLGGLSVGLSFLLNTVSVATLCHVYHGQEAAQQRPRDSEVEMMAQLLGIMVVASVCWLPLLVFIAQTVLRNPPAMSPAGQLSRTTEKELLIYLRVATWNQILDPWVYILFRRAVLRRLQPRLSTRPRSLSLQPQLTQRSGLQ
Put plainly: TP functional assay. It is filed as cell-based.
From the text: as §1

T1 sequence (P35408 whole entry): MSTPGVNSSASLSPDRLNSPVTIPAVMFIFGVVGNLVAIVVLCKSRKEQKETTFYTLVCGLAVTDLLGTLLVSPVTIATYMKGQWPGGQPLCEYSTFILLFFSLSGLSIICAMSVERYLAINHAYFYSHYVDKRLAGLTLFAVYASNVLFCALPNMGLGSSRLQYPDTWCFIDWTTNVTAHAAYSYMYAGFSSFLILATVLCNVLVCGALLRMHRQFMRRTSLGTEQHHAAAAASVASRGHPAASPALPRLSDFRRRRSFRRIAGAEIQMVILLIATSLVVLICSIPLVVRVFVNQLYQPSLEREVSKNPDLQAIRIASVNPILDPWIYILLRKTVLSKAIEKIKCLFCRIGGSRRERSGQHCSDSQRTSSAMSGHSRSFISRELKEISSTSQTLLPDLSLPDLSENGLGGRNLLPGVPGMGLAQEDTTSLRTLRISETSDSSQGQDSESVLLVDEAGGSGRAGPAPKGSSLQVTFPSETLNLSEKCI
T4 sequence (P43116 whole entry): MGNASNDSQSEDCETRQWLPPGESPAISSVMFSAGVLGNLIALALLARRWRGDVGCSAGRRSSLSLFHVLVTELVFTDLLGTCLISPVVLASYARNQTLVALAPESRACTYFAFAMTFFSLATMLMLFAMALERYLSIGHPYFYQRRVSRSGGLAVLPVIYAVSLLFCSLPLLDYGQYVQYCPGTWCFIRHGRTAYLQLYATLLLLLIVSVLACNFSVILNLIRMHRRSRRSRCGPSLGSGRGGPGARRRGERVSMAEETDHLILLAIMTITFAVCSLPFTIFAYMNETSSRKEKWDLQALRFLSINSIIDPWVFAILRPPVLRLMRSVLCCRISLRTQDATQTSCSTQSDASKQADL

Consider `C[C@@H](O)CCC[C@H](O)/C=C/[C@@H]1[C@@H](C/C=C\CCCC(=O)O)[C@H](Cl)C[C@H]1O`, for which the concentration giving a half-maximal response (EC50) on EP4 [1] was 885 nM; on EP1 it was 13 nM; on EP4 [2], 46 nM; at EP3 it was 6 nM; on EP2 [3], 0.03 nM; at EP2 [4], 25 nM. In addition, the 50% effective concentration (EC50) on EP2 [5] is 4 nM; at TP, 178 nM. For the same compound, the “EP4 Binding % Inh” value at EP4 [1] worked out at 81%. For the same compound, the “EP4 Ca2+ signal % PGE2” value at EP4 [2] is given as 107%. Besides, the “EP2 Binding % Inh” value at EP2 [4] turned out to be 99%. Further, on EP2 [5], the “EP2 Ca2+ signal % PGE2” value was determined as 107%.

Consider `C[C@@H](O)CCC[C@H](O)/C=C/[C@@H]1[C@@H](CCCCCCC(=O)O)[C@H](Cl)C[C@H]1O`, for which the “EP4 Binding % Inh” value at EP4 [1] turned out to be 29%. The concentration giving a half-maximal response (EC50) at EP4 [2] was determined as 727 nM; at EP2 [3], 1.47 nM; at EP2 [4], 1220 nM; at EP2 [5], 109 nM. Besides, at EP4 [2], the “EP4 Ca2+ signal % PGE2” value amounted to 99%. For the same compound, at EP2 [4], the “EP2 Binding % Inh” value is 78%. Also, the “EP2 Ca2+ signal % PGE2” value on EP2 [5] was determined as 100%.
